Experimental data published in ChEMBL document CHEMBL3991601, “The target landscape of clinical kinase drugs” (Science, 2017).
Calls of active or inactive are those of the source. Cut-off read from the data, not from the text of the source, for most assays here: actives have a measured Kd and inactives only a lower limit.

Tests used:
[1] = molecular target: T1, Breakpoint cluster region protein (Homo sapiens, UniProt P11274)
T1 sequence (P11274 whole entry): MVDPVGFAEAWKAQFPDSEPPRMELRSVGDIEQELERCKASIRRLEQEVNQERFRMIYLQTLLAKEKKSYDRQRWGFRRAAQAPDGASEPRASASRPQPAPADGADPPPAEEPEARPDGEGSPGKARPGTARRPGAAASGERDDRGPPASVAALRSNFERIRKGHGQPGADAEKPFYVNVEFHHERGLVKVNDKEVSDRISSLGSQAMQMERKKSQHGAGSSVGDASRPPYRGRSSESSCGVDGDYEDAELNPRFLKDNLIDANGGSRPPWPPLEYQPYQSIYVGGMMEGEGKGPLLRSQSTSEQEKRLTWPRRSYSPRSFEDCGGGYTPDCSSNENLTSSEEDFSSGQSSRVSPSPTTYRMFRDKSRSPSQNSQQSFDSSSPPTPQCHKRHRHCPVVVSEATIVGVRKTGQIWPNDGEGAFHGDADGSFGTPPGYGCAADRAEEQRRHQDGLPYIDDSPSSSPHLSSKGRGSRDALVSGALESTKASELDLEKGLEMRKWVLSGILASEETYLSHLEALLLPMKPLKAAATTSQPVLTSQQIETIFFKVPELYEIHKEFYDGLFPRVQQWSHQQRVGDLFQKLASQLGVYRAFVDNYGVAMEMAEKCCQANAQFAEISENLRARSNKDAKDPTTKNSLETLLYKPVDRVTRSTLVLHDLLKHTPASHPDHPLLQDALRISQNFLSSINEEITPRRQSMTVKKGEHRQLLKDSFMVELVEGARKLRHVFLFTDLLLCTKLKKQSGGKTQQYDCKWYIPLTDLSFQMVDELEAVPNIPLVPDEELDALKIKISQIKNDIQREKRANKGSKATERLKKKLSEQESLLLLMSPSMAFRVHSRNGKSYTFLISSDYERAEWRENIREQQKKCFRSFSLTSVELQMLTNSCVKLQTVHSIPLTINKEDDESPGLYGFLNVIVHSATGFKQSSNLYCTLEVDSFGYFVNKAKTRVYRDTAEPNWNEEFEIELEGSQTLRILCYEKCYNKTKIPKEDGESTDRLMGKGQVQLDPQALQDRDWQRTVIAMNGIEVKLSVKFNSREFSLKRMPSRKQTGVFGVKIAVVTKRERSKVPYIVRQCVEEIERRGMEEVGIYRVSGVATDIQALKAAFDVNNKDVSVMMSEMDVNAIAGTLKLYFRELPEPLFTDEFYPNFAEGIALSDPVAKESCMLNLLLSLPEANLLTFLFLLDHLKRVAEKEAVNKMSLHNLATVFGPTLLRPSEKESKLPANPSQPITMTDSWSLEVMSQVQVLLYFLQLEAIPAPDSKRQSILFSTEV

[2] = molecular target: T2, Beta-adrenergic receptor kinase 1 (Homo sapiens, UniProt P25098)
T2 sequence (P25098 whole entry): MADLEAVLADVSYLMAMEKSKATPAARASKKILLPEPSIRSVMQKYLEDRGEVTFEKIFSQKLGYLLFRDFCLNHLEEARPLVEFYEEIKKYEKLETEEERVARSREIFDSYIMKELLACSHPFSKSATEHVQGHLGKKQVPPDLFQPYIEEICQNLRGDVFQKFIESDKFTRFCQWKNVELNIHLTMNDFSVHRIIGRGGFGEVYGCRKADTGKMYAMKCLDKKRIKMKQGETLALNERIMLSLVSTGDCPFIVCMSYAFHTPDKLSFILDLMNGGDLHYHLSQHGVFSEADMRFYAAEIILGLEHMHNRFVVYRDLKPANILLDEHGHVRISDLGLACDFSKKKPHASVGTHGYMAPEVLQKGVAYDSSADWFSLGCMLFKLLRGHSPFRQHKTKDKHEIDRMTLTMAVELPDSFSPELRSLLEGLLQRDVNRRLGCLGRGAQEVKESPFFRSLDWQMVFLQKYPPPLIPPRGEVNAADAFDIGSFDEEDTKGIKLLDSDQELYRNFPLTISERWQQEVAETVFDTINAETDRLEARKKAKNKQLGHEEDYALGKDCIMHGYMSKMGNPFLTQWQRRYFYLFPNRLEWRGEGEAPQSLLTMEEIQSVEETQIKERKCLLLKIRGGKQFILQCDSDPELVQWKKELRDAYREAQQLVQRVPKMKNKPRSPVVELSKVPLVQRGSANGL

[3] = molecular target: Atypical kinase COQ8A, mitochondrial (Homo sapiens, UniProt Q8NI60)
Sequence of Atypical kinase COQ8A, mitochondrial (Q8NI60 whole entry, the tested form may be a part): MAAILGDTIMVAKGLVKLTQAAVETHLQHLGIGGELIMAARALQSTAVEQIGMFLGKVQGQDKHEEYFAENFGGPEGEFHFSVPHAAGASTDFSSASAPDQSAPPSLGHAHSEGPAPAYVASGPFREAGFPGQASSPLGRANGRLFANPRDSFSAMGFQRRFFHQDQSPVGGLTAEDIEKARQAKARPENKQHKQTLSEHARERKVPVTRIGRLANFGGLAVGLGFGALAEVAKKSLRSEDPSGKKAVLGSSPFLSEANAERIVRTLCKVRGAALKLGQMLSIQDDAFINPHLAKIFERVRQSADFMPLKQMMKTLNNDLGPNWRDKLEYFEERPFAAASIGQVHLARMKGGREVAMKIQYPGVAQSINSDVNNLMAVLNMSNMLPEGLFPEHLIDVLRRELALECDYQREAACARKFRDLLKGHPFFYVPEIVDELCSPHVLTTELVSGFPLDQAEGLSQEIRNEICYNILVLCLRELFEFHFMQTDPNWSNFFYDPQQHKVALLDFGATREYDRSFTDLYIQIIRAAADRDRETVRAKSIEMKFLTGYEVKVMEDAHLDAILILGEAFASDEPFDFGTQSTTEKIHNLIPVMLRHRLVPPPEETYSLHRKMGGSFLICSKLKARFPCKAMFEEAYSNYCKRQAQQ

[4] = molecular target: T3, AarF domain-containing protein kinase 1 (Homo sapiens, UniProt Q86TW2)
T3 sequence (Q86TW2 whole entry): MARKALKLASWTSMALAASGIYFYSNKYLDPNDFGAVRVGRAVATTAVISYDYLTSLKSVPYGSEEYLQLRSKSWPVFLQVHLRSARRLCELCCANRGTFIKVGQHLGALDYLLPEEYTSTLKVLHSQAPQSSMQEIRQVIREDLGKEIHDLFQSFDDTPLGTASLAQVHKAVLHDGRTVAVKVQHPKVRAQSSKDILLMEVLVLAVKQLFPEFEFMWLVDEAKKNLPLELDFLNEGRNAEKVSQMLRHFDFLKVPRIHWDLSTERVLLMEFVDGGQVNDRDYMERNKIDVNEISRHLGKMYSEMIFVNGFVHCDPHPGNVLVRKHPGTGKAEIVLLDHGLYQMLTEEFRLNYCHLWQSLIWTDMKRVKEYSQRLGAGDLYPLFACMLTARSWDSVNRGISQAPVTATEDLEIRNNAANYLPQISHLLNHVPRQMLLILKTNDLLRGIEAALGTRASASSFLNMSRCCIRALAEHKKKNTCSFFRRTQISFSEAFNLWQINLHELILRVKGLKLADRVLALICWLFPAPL

Pyridoxal kinase = molecular target: T4, Pyridoxal kinase (Homo sapiens, UniProt O00764)
T4 sequence (O00764 whole entry): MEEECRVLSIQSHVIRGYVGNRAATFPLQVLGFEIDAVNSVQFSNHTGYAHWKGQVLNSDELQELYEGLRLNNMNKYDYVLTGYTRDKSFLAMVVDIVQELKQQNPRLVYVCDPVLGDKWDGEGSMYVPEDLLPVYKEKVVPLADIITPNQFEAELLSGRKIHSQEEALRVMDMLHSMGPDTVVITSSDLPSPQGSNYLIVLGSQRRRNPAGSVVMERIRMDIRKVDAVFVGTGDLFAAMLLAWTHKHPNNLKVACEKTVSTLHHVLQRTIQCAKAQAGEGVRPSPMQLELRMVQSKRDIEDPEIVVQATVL

[5] = molecular target: Platelet-derived growth factor receptor beta (Homo sapiens, UniProt P09619)
Sequence of Platelet-derived growth factor receptor beta (P09619 whole entry): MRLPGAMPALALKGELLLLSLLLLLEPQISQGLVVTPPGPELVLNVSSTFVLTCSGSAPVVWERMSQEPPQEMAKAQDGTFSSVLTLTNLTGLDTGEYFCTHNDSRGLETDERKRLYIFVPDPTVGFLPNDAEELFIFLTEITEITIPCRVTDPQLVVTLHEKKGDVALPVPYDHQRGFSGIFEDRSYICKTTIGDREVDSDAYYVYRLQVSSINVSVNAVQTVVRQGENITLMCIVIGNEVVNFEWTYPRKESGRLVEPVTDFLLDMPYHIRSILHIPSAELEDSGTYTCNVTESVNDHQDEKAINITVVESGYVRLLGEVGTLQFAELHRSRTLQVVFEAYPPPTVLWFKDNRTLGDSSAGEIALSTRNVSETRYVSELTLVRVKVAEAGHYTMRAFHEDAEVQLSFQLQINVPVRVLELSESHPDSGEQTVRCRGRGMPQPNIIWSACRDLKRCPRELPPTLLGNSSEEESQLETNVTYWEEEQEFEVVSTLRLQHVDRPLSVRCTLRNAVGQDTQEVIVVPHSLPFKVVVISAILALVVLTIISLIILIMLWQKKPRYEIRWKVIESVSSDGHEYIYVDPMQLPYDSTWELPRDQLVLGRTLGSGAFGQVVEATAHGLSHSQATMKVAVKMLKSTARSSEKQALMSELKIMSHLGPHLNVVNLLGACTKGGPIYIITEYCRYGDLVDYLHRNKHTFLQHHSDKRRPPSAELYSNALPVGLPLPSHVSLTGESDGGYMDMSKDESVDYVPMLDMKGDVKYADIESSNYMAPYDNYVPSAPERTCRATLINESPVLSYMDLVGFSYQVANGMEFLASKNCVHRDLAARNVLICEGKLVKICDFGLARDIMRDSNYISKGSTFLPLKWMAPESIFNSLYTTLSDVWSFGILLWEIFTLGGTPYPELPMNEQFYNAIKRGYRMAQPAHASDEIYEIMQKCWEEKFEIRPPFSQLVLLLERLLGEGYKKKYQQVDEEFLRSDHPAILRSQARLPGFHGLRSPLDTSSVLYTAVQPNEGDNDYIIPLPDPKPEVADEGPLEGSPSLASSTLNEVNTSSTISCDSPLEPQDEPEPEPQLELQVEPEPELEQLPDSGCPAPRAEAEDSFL

[6] = molecular target: 5'-AMP-activated protein kinase catalytic subunit alpha-1 (Homo sapiens, UniProt Q13131)
Sequence of 5'-AMP-activated protein kinase catalytic subunit alpha-1 (Q13131 whole entry): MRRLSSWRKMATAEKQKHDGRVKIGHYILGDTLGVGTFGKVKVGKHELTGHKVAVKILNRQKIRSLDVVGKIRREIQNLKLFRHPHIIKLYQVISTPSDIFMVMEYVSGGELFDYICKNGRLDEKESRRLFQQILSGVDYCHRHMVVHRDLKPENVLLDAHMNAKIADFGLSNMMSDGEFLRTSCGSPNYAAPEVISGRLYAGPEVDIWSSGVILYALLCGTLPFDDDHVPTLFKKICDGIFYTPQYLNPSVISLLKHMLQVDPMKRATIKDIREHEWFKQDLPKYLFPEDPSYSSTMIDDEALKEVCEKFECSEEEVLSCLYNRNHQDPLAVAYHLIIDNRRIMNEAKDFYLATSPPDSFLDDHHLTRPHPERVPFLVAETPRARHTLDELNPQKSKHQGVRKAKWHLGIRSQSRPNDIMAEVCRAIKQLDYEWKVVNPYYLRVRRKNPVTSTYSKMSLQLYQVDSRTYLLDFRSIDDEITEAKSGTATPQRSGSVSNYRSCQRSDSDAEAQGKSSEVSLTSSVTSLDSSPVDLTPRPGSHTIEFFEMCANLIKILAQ
Note: in the data inactive means no Kd found up to 30 µM.

| Kd [1] | Kd [2] | Kd [3] | Kd [4] | Kd (Pyridoxal kinase) | Kd [5] | Kd [6] | Structure (SMILES) |
| --- | --- | --- | --- | --- | --- | --- | --- |
| > 30 µM (inactive) | > 30 µM (inactive) | > 30 µM (inactive) | > 30 µM (inactive) | > 30 µM (inactive) |  |  | CCN(CCCOc1ccc2c(Nc3cc(CC(=O)Nc4cccc(F)c4)n[nH]3)ncnc2c1)CCOP(=O)(O)O [BARASERTIB] |
| > 30 µM (inactive) | > 30 µM (inactive) | > 30 µM (inactive) | > 30 µM (inactive) | > 30 µM (inactive) | > 30 µM (inactive) | > 30 µM (inactive) | O=C(NC[C@H](O)CO)c1ccncc1Nc1ccc(I)cc1F [PIMASERTIB] |
| > 30 µM (inactive) | > 30 µM (inactive) | > 30 µM (inactive) | > 30 µM (inactive) | > 30 µM (inactive) | > 30 µM (inactive) | > 30 µM (inactive) | O=C(Nc1ccc(OC(F)(F)F)cc1)c1sccc1NCc1ccnc2ccccc12 [OSI-930] |
| > 30 µM (inactive) | > 30 µM (inactive) | > 30 µM (inactive) | > 30 µM (inactive) | > 30 µM (inactive) | > 30 µM (inactive) | > 30 µM (inactive) | O=C(NOC[C@H](O)CO)c1ccc(F)c(F)c1Nc1ccc(I)cc1F [MIRDAMETINIB] |
| > 30 µM (inactive) | > 30 µM (inactive) | > 30 µM (inactive) | 1.07 µM (active) | > 30 µM (inactive) | > 30 µM (inactive) | > 30 µM (inactive) | COc1cc(Nc2ncc(F)c(Nc3ccc4c(n3)N(COP(=O)(O)O)C(=O)C(C)(C)O4)n2)cc(OC)c1OC [FOSTAMATINIB] |
| 2.31 µM (active) | > 30 µM (inactive) |  | > 30 µM (inactive) | > 30 µM (inactive) |  |  | COc1cc2c(Oc3ccc4[nH]c(C)cc4c3F)ncnc2cc1OCCCN1CCCC1 [CEDIRANIB] |
| > 30 µM (inactive) | > 30 µM (inactive) | > 30 µM (inactive) | > 30 µM (inactive) | > 30 µM (inactive) | 0.555 µM (active) | > 30 µM (inactive) | CNC(=O)c1cc(COc2nnc(Nc3ccc(Cl)cc3)c3ccoc23)ccn1 [TELATINIB] |
|  | > 30 µM (inactive) |  | > 30 µM (inactive) | > 30 µM (inactive) |  |  | COc1cc2c(N3CCN(C(=O)Nc4ccc(OC(C)C)cc4)CC3)ncnc2cc1OCCCN1CCCCC1 [TANDUTINIB] |
| > 30 µM (inactive) | > 30 µM (inactive) |  | > 30 µM (inactive) | > 30 µM (inactive) |  |  | CC1(C)CNc2cc(NC(=O)c3cccnc3NCc3ccncc3)ccc21 [MOTESANIB] |
| > 30 µM (inactive) | > 30 µM (inactive) |  | > 30 µM (inactive) | > 30 µM (inactive) |  |  | Cn1cnc2c(F)c(Nc3ccc(Br)cc3Cl)c(C(=O)NOCCO)cc21 [SELUMETINIB] |
| > 30 µM (inactive) |  |  | > 30 µM (inactive) | > 30 µM (inactive) |  |  | C[C@@]1(C(=O)Nc2ccc(F)nc2)CCCN1c1nc(Nc2cc(C3CC3)n[nH]2)c2cccn2n1 [BMS-754807] |
| > 30 µM (inactive) | > 30 µM (inactive) | > 30 µM (inactive) | > 30 µM (inactive) | > 30 µM (inactive) | > 30 µM (inactive) |  | CCOc1ccn(-c2ccc(F)cc2)c(=O)c1C(=O)Nc1ccc(Oc2ccnc(N)c2Cl)c(F)c1 [BMS-777607] |
| > 30 µM (inactive) | > 30 µM (inactive) | > 30 µM (inactive) | > 30 µM (inactive) | > 30 µM (inactive) |  |  | Cn1c(=O)n(-c2ccc(C(C)(C)C#N)cc2)c2c3cc(-c4cnc5ccccc5c4)ccc3ncc21 [DACTOLISIB] |
| > 30 µM (inactive) | > 30 µM (inactive) |  | > 30 µM (inactive) | > 30 µM (inactive) |  |  | CN(C)C/C=C/C(=O)Nc1cc2c(Nc3ccc(F)c(Cl)c3)ncnc2cc1O[C@H]1CCOC1 [AFATINIB] |
| 0.035 µM (active) | > 30 µM (inactive) | > 30 µM (inactive) | > 30 µM (inactive) | > 30 µM (inactive) |  | > 30 µM (inactive) | Cc1cc(C(=O)Nc2cc(Oc3ccc4nc(NC(=O)C5CC5)cn4n3)ccc2C)n(C)n1 [TAK-593] |

| Structure (SMILES) | Kd [1] | Kd [2] | Kd [3] | Kd [4] | Kd (Pyridoxal kinase) | Kd [5] | Kd [6] |
| --- | --- | --- | --- | --- | --- | --- | --- |
| CC1(COc2ccc3c(c2)ncn3-c2ccc3cccc(N4CCC(N)CC4)c3n2)COC1 [CRENOLANIB] | > 30 µM (inactive) | > 30 µM (inactive) | > 30 µM (inactive) | > 30 µM (inactive) | > 30 µM (inactive) |  | 1.25 µM (active) |
| C=CCn1c(=O)c2cnc(Nc3ccc(N4CCN(C)CC4)cc3)nc2n1-c1cccc(C(C)(C)O)n1 [ADAVOSERTIB] | 1.91 µM (active) | > 30 µM (inactive) | > 30 µM (inactive) | 1.9 µM (active) | > 30 µM (inactive) | > 30 µM (inactive) |  |
| C[C@]1(O)C[C@@H](c2nc(-c3ccc4ccc(-c5ccccc5)nc4c3)c3c(N)nccn32)C1 [LINSITINIB] | > 30 µM (inactive) | > 30 µM (inactive) | > 30 µM (inactive) | > 30 µM (inactive) | > 30 µM (inactive) | > 30 µM (inactive) |  |
| O=S(=O)(c1cccc2cnccc12)N1CCCNCC1 [FASUDIL] | > 30 µM (inactive) | > 30 µM (inactive) | > 30 µM (inactive) | > 30 µM (inactive) | > 30 µM (inactive) | > 30 µM (inactive) |  |
| CN(c1ncccc1CNc1nc(Nc2ccc3c(c2)CC(=O)N3)ncc1C(F)(F)F)S(C)(=O)=O [PF-00562271] | > 30 µM (inactive) | > 30 µM (inactive) | > 30 µM (inactive) | > 30 µM (inactive) | > 30 µM (inactive) |  |  |
| CN1CCN(c2nc(C3=C(c4c[nH]c5ccccc45)C(=O)NC3=O)c3ccccc3n2)CC1 [SOTRASTAURIN] | > 30 µM (inactive) | > 30 µM (inactive) | > 30 µM (inactive) | > 30 µM (inactive) | > 30 µM (inactive) |  | > 30 µM (inactive) |
